Consider 37 molecules from ChEMBL document CHEMBL4680302, “Biologic-like In Vivo Efficacy with Small Molecule Inhibitors of TNFα Identified Using Scaffold Hopping and Structure-Based Drug Design Approaches” (J Med Chem, 2020).

The target in data set [1] is T1, Tumor necrosis factor (Homo sapiens, UniProt P01375). Briefly: Displacement of fluorescent labeled probe from human recombinant His-tagged TNFalpha (77 to 233 residues) expressed in Escherichia coli preincubated for 1 hr followed by fluorogenic probe addition and measured after 3 hrs by HTRF assay.
The target of data set [2] is T1, Tumor necrosis factor. Briefly: Inhibition of exogenous human TNFalpha in HEK-Blue-CD40L cells assessed as reduction in TNF-alpha-induced NFkappaB activation incubated for 18 hrs by quanti-blue based SEAP assay. The class given is cell-based.
The nature of data set [3]: Metabolic stability in human liver microsomes assessed as parent compound remaining after 10 mins. It is filed as ADME, Microsome. Conditions: read-out: Stabilty.
A short description of data set [4]: Metabolic stability in mouse liver microsomes assessed as parent compound remaining after 10 mins. The class given is ADME, Microsome. Particulars: read-out: Stabilty.
A further data set has as its target Cytochrome P450 2C9 (Homo sapiens, UniProt P11712). In words: Inhibition of recombinant CYP2C9 (unknown origin). It is filed as ADME.
A further data set concerns the target Cytochrome P450 2C19 (Homo sapiens, UniProt P33261). In words: Inhibition of recombinant CYP2C19 (unknown origin). It is filed as ADME.

Some results are limits rather than exact numbers.

Cytochrome P450 2C19, sequence (P33261 whole entry): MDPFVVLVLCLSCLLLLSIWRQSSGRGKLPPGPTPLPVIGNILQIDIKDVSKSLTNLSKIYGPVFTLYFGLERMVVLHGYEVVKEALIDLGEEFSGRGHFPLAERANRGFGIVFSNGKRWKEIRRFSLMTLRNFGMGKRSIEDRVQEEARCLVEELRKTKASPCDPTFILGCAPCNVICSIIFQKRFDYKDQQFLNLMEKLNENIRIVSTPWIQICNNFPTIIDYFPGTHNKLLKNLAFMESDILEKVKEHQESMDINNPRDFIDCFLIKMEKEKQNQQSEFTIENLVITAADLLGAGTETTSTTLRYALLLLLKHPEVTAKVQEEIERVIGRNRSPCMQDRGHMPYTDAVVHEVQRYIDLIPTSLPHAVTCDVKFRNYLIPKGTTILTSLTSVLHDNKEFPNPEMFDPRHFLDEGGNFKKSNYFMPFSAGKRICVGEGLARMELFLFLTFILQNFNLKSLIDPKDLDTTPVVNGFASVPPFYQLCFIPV
T1 sequence (P01375 whole entry, the tested form may be a part): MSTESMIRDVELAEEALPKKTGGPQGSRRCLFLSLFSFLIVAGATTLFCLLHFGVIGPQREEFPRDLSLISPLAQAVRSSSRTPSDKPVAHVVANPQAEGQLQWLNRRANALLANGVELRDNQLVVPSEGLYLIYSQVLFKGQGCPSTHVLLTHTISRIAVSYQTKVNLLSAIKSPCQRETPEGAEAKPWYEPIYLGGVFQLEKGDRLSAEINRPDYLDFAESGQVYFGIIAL
Cytochrome P450 2C9, sequence (P11712 whole entry): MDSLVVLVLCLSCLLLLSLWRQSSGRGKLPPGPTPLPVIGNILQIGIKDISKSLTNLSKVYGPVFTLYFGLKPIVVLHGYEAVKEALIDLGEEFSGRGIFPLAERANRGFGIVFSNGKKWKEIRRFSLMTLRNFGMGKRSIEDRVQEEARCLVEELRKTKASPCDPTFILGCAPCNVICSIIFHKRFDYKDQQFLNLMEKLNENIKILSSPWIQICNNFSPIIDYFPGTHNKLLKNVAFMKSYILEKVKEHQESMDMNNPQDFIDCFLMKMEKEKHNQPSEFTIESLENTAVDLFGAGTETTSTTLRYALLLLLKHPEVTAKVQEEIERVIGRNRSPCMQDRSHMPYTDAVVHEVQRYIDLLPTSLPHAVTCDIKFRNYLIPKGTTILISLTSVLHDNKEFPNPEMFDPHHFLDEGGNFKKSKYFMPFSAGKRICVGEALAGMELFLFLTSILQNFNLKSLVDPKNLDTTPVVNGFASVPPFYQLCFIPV

For `C[C@@H](Nc1c(Cl)cnc2ccc(-c3ccc(S(C)(=O)=O)nc3)cc12)c1ccccc1F`, the IC50 on Tumor necrosis factor [1] was 15 nM; on Tumor necrosis factor [2] it was 909 nM. In addition, the remaining at 10 min in data set [3] stood at 33%; in data set [4] it was 31%.

Consider `Cc1ccc(C)c(Nc2c(Cl)c(C)nc3ccc(-c4cnc(C(C)(C)O)nc4)cc23)c1`, for which the half-inhibitory concentration (IC50) on Tumor necrosis factor [1] turned out to be 51 nM; at Tumor necrosis factor [2] it was 196 nM; on Cytochrome P450 2C9 it was 2800 nM; at Cytochrome P450 2C19, 2100 nM.

As for `CC(Nc1c(Cl)cnc2ncc(-c3cnc(C(C)(C)O)nc3)cc12)c1ccccc1F` (racemic), the IC50 at Tumor necrosis factor [1] worked out at 207 nM.

As to `CC(C)(O)c1ncc(-c2ccc3ncc(Cl)c(NC(C)(C)c4ccccc4)c3c2)cn1`, the IC50 at Tumor necrosis factor [1] is above 10000 nM; on Tumor necrosis factor [2], above 25000 nM. In addition, the remaining at 10 min in data set [3] turned out to be 76%; in data set [4], 47%.

On to `CC(C)(O)c1ncc(-c2ccc3ncc(Cl)c(NCc4ccccc4)c3c2)cn1`, for which the IC50 at Tumor necrosis factor [1] is 82 nM; on Tumor necrosis factor [2] it was above 25000 nM. Further, the remaining at 10 min is 57% in data set [3] and 61% in data set [4].

In the case of `CC(Nc1c(Cl)cnc2ccc(-c3cnc(C(C)(C)O)nc3)nc12)c1ccccc1F` (single isomer, unassigned; enantiomer 2), the IC50 on Tumor necrosis factor [1] came to 38 nM; on Tumor necrosis factor [2] it was 473 nM; at Cytochrome P450 2C19, 30 nM. Besides, the remaining at 10 min in data set [3] turned out to be 84%; in data set [4], 41%.

As for `C[C@@H](Nc1c(Cl)cnc2ccc(-c3cnc(N4CCN(CC(=O)O)CC4)nc3)cc12)c1ccccc1F`, at Tumor necrosis factor [2], the IC50 stood at 115 nM. For the same molecule, the remaining at 10 min in data set [3] is 86%; in data set [4], 57%.

Take `C[C@@H](Nc1c(Cl)cnc2ccc(-c3ccc(C(C)(C)O)cc3)cc12)c1ccccc1F`: the IC50 was 47 nM at Tumor necrosis factor [1] and 65 nM at Tumor necrosis factor [2]. For the same molecule, the results for the remaining at 10 min in data set [3] and in data set [4] were 73% and 24%, respectively.

Take `C[C@@H](Nc1c(Cl)cnc2ccc(-c3cnc(C(C)(C)O)nc3)cc12)c1cc(C#N)ccc1F`: the values for the IC50 at Tumor necrosis factor [1] and on Tumor necrosis factor [2] were 48 nM and 49 nM, respectively. In addition, the figures for the remaining at 10 min in data set [3] and in data set [4] were 79% and 23%, respectively.

For the molecule `CC(C)C(Nc1c(Cl)cnc2ccc(-c3cnc(C(C)(C)O)nc3)cc12)c1ccccc1F` (racemic), the values for the IC50 on Tumor necrosis factor [1] and on Tumor necrosis factor [2] were 57 nM and 826 nM, respectively. In addition, the remaining at 10 min in data set [3] was 69%; in data set [4], 13%.

With `CC(Nc1c(Cl)cnc2ccc(-c3cnc(C(C)(C)O)nc3)cc12)c1ccccn1` (racemic), the IC50 at Tumor necrosis factor [1] is 264 nM; at Tumor necrosis factor [2], above 25000 nM. For the same molecule, the figures for the remaining at 10 min in data set [3] and in data set [4] were 50% and 21%, respectively.

On to `C[C@@H](Nc1c(Cl)cnc2ccc(-c3cnc(C(C)(C)O)nc3)cc12)c1cc(N)ccc1F`, for which the IC50 is 37 nM on Tumor necrosis factor [1] and 41 nM on Tumor necrosis factor [2]. The remaining at 10 min in data set [3] amounted to 70%; in data set [4], 45%.

Consider `C[C@@H](Nc1c(Cl)cnc2ccc(-c3cnc(C(C)(C)O)nc3)cc12)c1ccccc1`, for which the values for the IC50 at Tumor necrosis factor [1] and on Tumor necrosis factor [2] were 14 nM and 496 nM, respectively. For the same molecule, the figures for the remaining at 10 min in data set [3] and in data set [4] were 45% and 50%, respectively.

With `CC(Nc1c(Cl)cnc2ccc(-c3cnc(C(C)(C)O)nc3)c(Cl)c12)c1ccccc1F` (racemic), the IC50 on Tumor necrosis factor [1] stood at 116 nM; on Tumor necrosis factor [2], 365 nM.

As to `Cc1ccc(C)c(Nc2c(C)cnc3ccc(-c4cnc(C(C)(C)O)nc4)cc23)c1`, the IC50 at Tumor necrosis factor [2] was 107 nM.

`CC(Nc1c(Cl)cnc2ccc(-c3cnc(C(C)(C)O)nc3)cc12)c1ccc(F)cc1` (racemic): the IC50 came to 62 nM at Tumor necrosis factor [1] and 840 nM on Tumor necrosis factor [2]. Also, the remaining at 10 min in data set [3] stood at 42%; in data set [4] it was 38%.

Consider `C[C@@H](Nc1c(Cl)cnc2ccc(-c3cnc(C(C)(C)O)nc3)cc12)c1cc(N2CCCC2)ccc1F`, for which the figures for the IC50 on Tumor necrosis factor [1] and on Tumor necrosis factor [2] were 94 nM and 331 nM, respectively. In addition, the remaining at 10 min is 30% in data set [3] and 18% in data set [4].

As to `Cc1ccc(C)c(Nc2c(Cl)cnc3ccc(-c4ccc(C#N)nc4)cc23)c1`, the figures for the IC50 at Tumor necrosis factor [1] and at Tumor necrosis factor [2] were 35 nM and 73 nM, respectively. Besides, the figures for the remaining at 10 min in data set [3] and in data set [4] were 33% and 30%, respectively.

With `C[C@@H](Nc1ccnc2ccc(-c3cnc(C(C)(C)O)nc3)cc12)c1cc(N2CCCC2)ccc1F`, the results for the IC50 on Tumor necrosis factor [1] and at Tumor necrosis factor [2] were 15100 nM and above 25000 nM, respectively. For the same molecule, the remaining at 10 min in data set [3] came to 46%; in data set [4] it was 51%.

For `Cc1ccc(C)c(Nc2ccnc3ccc(-c4ccc(C#N)nc4)cc23)c1`, the IC50 at Tumor necrosis factor [1] is 428 nM; on Tumor necrosis factor [2] it was above 25000 nM.

As to `CC(Nc1c(Cl)cnc2ccc(-c3cnc(C(C)(C)O)nc3)cc12)c1cccc(F)c1` (racemic), the IC50 on Tumor necrosis factor [1] was 31 nM; on Tumor necrosis factor [2], 1040 nM. The remaining at 10 min stood at 47% in data set [3] and 32% in data set [4].

For the molecule `C[C@@H](Nc1c(Cl)cnc2ccc(-c3cnc(C(C)(C)O)nc3)cc12)c1ccccc1F`, the results for the half-maximal inhibitory concentration (IC50) on Tumor necrosis factor [1] and on Tumor necrosis factor [2] were 17 nM and 110 nM, respectively. In addition, the remaining at 10 min amounted to 59% in data set [3] and 54% in data set [4].

Regarding `CC(Nc1c(Cl)cnc2ccc(-c3cnc(C(C)(C)O)nc3)cc12)c1ccccc1C(F)(F)F` (racemic), the IC50 turned out to be 51 nM on Tumor necrosis factor [1] and 407 nM at Tumor necrosis factor [2]. In addition, the remaining at 10 min in data set [3] stood at 81%; in data set [4], 49%.

With `C[C@@H](Nc1c(Cl)cnc2ccc(-c3cnc(N4CCS(=O)(=O)CC4)nc3)cc12)c1ccccc1F`, the IC50 at Tumor necrosis factor [1] is 25 nM; on Tumor necrosis factor [2] it was 152 nM. Moreover, the results for the remaining at 10 min in data set [3] and in data set [4] were 57% and 34%, respectively.

Regarding `Cc1ccc(C)c(Nc2c(Cl)cnc3ccc(-c4cnc(C(C)(C)O)nc4)cc23)c1`, the IC50 on Tumor necrosis factor [2] was 105 nM; on Cytochrome P450 2C9, 600 nM; on Cytochrome P450 2C19, 30 nM. In addition, the remaining at 10 min in data set [3] came out at 35%; in data set [4] it was 24%.

Regarding `CCC(Nc1c(Cl)cnc2ccc(-c3cnc(C(C)(C)O)nc3)cc12)c1ccccc1F` (racemic), the IC50 was found to be 35 nM at Tumor necrosis factor [1] and 368 nM on Tumor necrosis factor [2]. For the same molecule, the remaining at 10 min in data set [3] was 57%; in data set [4], 38%.

`Cc1ccc(C)c(Nc2c(Cl)cnc3ccc(Br)cc23)c1`: the IC50 is 36 nM at Tumor necrosis factor [1] and 840 nM at Tumor necrosis factor [2].

Consider `CC(Nc1c(Cl)cnc2ccc(-c3cnc(C(C)(C)O)nc3)nc12)c1ccccc1F` (racemic), for which the IC50 on Tumor necrosis factor [1] was found to be 24 nM.

Take `CC(Nc1c(Cl)cnc2c(Cl)cc(-c3cnc(C(C)(C)O)nc3)cc12)c1ccccc1F` (racemic): the results for the IC50 at Tumor necrosis factor [1] and on Tumor necrosis factor [2] were 106 nM and above 25000 nM, respectively. Further, the remaining at 10 min in data set [3] stood at 40%; in data set [4], 7%.

Take `CC(Nc1c(Cl)cnc2ccc(-c3cnc(C(C)(C)O)nc3)cc12)c1ccccc1F` (racemic): the IC50 was found to be 27 nM at Tumor necrosis factor [1] and 190 nM on Tumor necrosis factor [2]. Also, the remaining at 10 min in data set [3] is 51%; in data set [4], 34%.

Consider `C[C@H](Nc1c(Cl)cnc2ccc(-c3cnc(C(C)(C)O)nc3)cc12)c1ccccc1`, for which the IC50 on Tumor necrosis factor [1] is 943 nM; on Tumor necrosis factor [2] it was above 25000 nM. Further, the remaining at 10 min worked out at 32% in data set [3] and 26% in data set [4].

On to `CCOc1ncc(-c2ccc3ncc(Cl)c(N[C@H](C)c4ccccc4F)c3c2)cn1`, for which the figures for the IC50 at Tumor necrosis factor [1] and at Tumor necrosis factor [2] were 15 nM and 587 nM, respectively. Besides, the remaining at 10 min was 32% in data set [3] and 28% in data set [4].

With `CC(Nc1c(Cl)cnc2cnc(-c3cnc(C(C)(C)O)nc3)cc12)c1ccccc1F` (racemic), the 50% inhibitory concentration (IC50) on Tumor necrosis factor [1] is 400 nM.

For `CC(Nc1c(Cl)cnc2cc(F)c(-c3cnc(C(C)(C)O)nc3)cc12)c1ccccc1F` (racemic), the IC50 at Tumor necrosis factor [1] was found to be 48 nM; at Tumor necrosis factor [2], 64 nM. For the same molecule, the figures for the remaining at 10 min in data set [3] and in data set [4] were 70% and 28%, respectively.

On to `CC(Nc1c(Cl)cnc2c(F)cc(-c3cnc(C(C)(C)O)nc3)cc12)c1ccccc1F` (racemic), for which the IC50 is 46 nM on Tumor necrosis factor [1] and 224 nM on Tumor necrosis factor [2]. Moreover, the remaining at 10 min was determined as 67% in data set [3] and 25% in data set [4].

Consider `CC(Nc1c(Cl)cnc2ccc(-c3cnc(C(C)(C)O)nc3)nc12)c1ccccc1F` (single isomer, unassigned; enantiomer 1), for which the half-inhibitory concentration (IC50) at Tumor necrosis factor [1] was 39 nM; at Tumor necrosis factor [2] it was 753 nM.

As to `CC(Nc1c(Cl)cnc2cc(Cl)c(-c3cnc(C(C)(C)O)nc3)cc12)c1ccccc1F` (racemic), the results for the IC50 at Tumor necrosis factor [1] and on Tumor necrosis factor [2] were 54 nM and 178 nM, respectively.
